According to patent publication US20200368280A1, “EPIGENETIC MODIFIERS FOR USE IN CELLULAR IMMUNOTHERAPY” (Viracta Therapeutics, Inc., priority 2018, published 2020):
Read-outs that look alike come from different tables or passages of the source.

Assays:
[1] = tested on: exhausted T cell population (CD8+ T cells) from PBMC; experiment: T cell exhaustion assay, CEFT-exhausted PBMC restimulated with DC and CEFT; assay type: cell-based, human; conditions: for IFN-γ release by restimulated CD8+ T cells (percent IFNγ secreting CD8+ cells, FIG. 11) / CD8+ T cell proliferation (FIG. 9B, 9C): restimulated with CEFT; for CD8+ T cell proliferation (FIG. 9B, 9C): compared to CEFT alone
Protocol: FIGS. 12A, 12B and 12C show the effects of anti-PD-1 and nanatinostat treatment on IFN-γ, TNFα, and TGFβ. Isolated PBMC were exhausted with CEFT-stimulation for 10 days prior to being restimulated with moDC and CEFT peptide with compound treatment for an additional 4 days. Luminex analysis was performed and levels of IFN-γ (FIG. 12A), TNFα (FIG. 12B), and TGFβ (FIG. 12C). Dotted lines denote anti-PD-1 control treatment and vehicle control treatment as indicated.
To test whether nanatinostat can be used to reverse T cell exhaustion, whether by itself or in combination with PD-1, a standard T cell exhaustion assay was used. Peripheral Blood Mononuclear Cells (PBMC) were separated over a density gradient from 3 single human donor buffy coats. PBMC were stimulated with pooled pathogen-specific class I peptides (CEFT) to generate an exhausted T cell population. Cells were then re-stimulated with CEFT and autologous monocyte-derived dendritic cells for a further time before testing in a final re-stimulation assay using replenished DC and CEFT to monitor reversal of exhaustion. […] One dose of HDAC inhibitor was tested and a single dose of anti-PD-1 was used. An unstimulated control and a reference HDAC inhibitor were also plated. Cultures were pulsed with 3H-thymidine and proliferation assessed. Supernatants were also harvested for cytokine analysis by multiplex. Samples of cells were stained with an antibody panel directed against CD4, CD8, PD-1, IL-15R, TIGIT, CD45RO, CCR7, IFNγ and CD25 and characterized using flow cytometry in order to confirm their exhausted phenotype, and whether expression levels were altered following exposure to the combination therapies. PBMC were also phenotyped using the above panel at day 0 to determine the initial frequency of cell populations.

[2] = tested on: BALB/c splenocytes (FoxP3+, CD25+ T regulatory cells); experiment: FACS analysis of splenocytes treated 24 hours with HDAC inhibitor; assay type: cell-based, BALB/c mice
Protocol: Test agents were added to each plate at the concentrations indicated in the table below and were incubated for 24 hours prior to FACS analysis. FACS analysis consisted of the following markers: live/dead, CD45, CD3, CD4, CD25 and FoxP3.

T cells in CT26 tumors = experiment: FACS analysis of CT26 tumors on Day 9; assay type: in vivo, Balb/c mice
Protocol: (§1) Nanatinostat alone and in combination with anti-mPD-1 was evaluated in the CT26 subcutaneous tumor model in Balb/c mice. Animals were dosed orally with nanatinostat at 25 mg/kg daily, and intraperitoneally with anti-mPD-1 at 10 mg/kg on a bi-weekly schedule. 8 animals per group were selected and tumors were collected for FACS and qPCR analysis on Day 9, 12-13 hours post dose. The remaining animals continued to receive their respective treatments until Day 21.
On Day 9, N=8/arm were harvested tumors for PD assessment 12-13 hours post last dose. Half of each tumor was placed in transfer buffer for FACS analysis.

[3] = tested on: gene expression in CT26 tumors; experiment: qPCR gene expression analysis of CT26 tumors on Day 9; assay type: in vivo, Balb/c mice; conditions: Day 9, tumors
Protocol: as §1
On Day 9, N=8/arm was harvested tumors for PD assessment. Half of each tumor was flash frozen for subsequent qPCR analysis. Fragments of flash frozen tumors were transferred in RLT PLUS buffer (Qiagen) and loaded into labelled and prefilled tubes with beads and homogenized for 60 seconds at maximum speed. RNA was extracted with AllPrep DNA/RNA Mini kit, purchased from Qiagen, according to the manufacturer's protocol. RNA quantity and purity was evaluated by Synergy 2 Multi-Mode Reader according to the Biotec Protocol. 750 ng total RNA from each sample was used to generate cDNA in a 20 μl reaction. The reaction was performed to the standard of Superscript III First-Strand Synthesis protocol by ThermoFisher by using Eppendorf Mastercycler Pro. […] Gene expression data was analyzed on the ViiA7 system using ABI 2.1 software to generate the raw data. […]

CT26 subcutaneous tumor = assay type: in vivo; conditions: nanatinostat 25 mg/kg orally daily, anti-mPD-1 10 mg/kg intraperitoneally
Protocol: as §1
144 female Balb/c mice (date of birth: Aug. 1, 2017) purchased from Jackson Laboratories were inoculated for the study. Animals were housed for a stabilization period of 5 days prior to inoculation. Animals were housed in individual HEPA ventilated cages (Innocage® IVC, Innovive USA). Fluorescent lighting was provided on a 12-hour cycle. Temperature and humidity was monitored and recorded daily and maintained to the maximum extent possible between 68-74° F. (20-23° C.) and 30-70% humidity, respectively. 2920X.10 18% soy irradiated rodent feed (Envigo) and autoclaved acidified water (pH2.5-3) was provided ad libitum.
CT26 cells were cultured as per ATCC's recommended culture protocol. For inoculation, cells were washed in PBS, counted, and resuspended in cold PBS at a concentration of 250,000 viable cells/100 μl. Cell suspension was kept on ice during transport to the vivarium. Cells were prepared for injections by withdrawing cells into a chilled 1 ml syringe fitted with a 26G 7/8 (0.5 mm×22 mm) needle.
Animals were prepared as needed for injection using standard approved anesthesia, and the mice were shaved prior to injection. One mouse at a time was immobilized and the site of injection was disinfected with an alcohol swab. 100 μl of the cell suspension was subcutaneously injected into the rear flank of the mouse. Mice were marked by ear tagging.
Animals were monitored daily for palpable tumors, or any changes in appearance or behavior. Once tumors were palpable, they were measured using calipers. Tumor volume was calculated using the following equation (longest diameter×shortest diameter^2)/2.

[4] = 1 uM, 24 hours, percentage ± SD
[5] = combination vs anti PD-1 only, nanatinostat only vs vehicle
[6] = 100 nM, 24 hours, percentage ± SD
[7] = listed as head prints 'nM' (1 nM), 24 hours, percentage ± SD

## Nc1ccccc1NC(=O)c1ccc(CNC(=O)OCc2cccnc2)cc1 [Entinostat, reference compound]
[1]
  IFN-γ release by restimulated CD8+ T cells (percent IFNγ secreting CD8+ cells, FIG. 11): reduced
[2]; [4]
  CD45+: 99.1 ± 0.27%

## O=C(NO)c1cnc(N2CC3C(C2)C3NCc2ccc3cc(F)ccc3n2)nc1 (centres unmarked) [Nanatinostat, 2-(6-{[(6-Fluoroquinolin-2-yl)methyl]amino}-3-azabicyclo[3.1.0]hex-3-yl)-N-hydroxypyrimidine-5-carboxamide]
[1]; compared to Entinostat
  cell viability (FIG. 10A, 10B): well tolerated
[1]
  IFN-γ release by restimulated CD8+ T cells (percent IFNγ secreting CD8+ cells, FIG. 11): little effect
  CD8+ T cell proliferation (FIG. 9B, 9C): negative effect
T cells in CT26 tumors; [5]
  CXCR3 expressing cell population in CD4+ T cells in tumors (FIG. 5A): no significant difference
  CXCR3 expressing cell population in CD8+ T cells in tumors (FIG. 5B): no significant difference
T cells in CT26 tumors; compared to the vehicle group
  CD8+ T-cell population in tumors: higher
T cells in CT26 tumors; compared to vehicle or anti-PD-1 group, p-value 0.007 for both
  T cell infiltration in tumors (FIG. 4): significantly increased
[3]
  KLRC2 expression on NK cells (FIG. 8): increased
[2]; [6]
  CD45+: 99.6 ± 0.12%
  CD45+ CD3+: 94 ± 0.83%
[2]; 500 nM, 24 hours, percentage ± SD
  CD45+: 99.5 ± 0.29%
[2]; [4]
  CD45+: 99.6 ± 0.17%
[2]; at least as low as
  concentration at which the suppressive effect on FoxP3, CD25+ T cells was still seen: ≤ 100 nM
[2]; [7]
  CD45+: 98.6 ± 0.36%
  CD45+ CD3+ CD4+ FoxP3+: 12 ± 1.51%
CT26 subcutaneous tumor; Day 3
  inhibition of tumor growth: 16.20%
CT26 subcutaneous tumor; Day 4
  inhibition of tumor growth: 23.31%
CT26 subcutaneous tumor; Day 7
  inhibition of tumor growth: 38.94%
CT26 subcutaneous tumor; Day 9
  inhibition of tumor growth: 33.81%
CT26 subcutaneous tumor; Day 9, listed as nanatinostat
  inhibition of tumor growth: 33%

## anti-PD-1 (Pembrolizumab): anti-PD-1 antibody used in the human T cell exhaustion assay [reference compound]
[1]
  CD8+ T cell proliferation (FIG. 9B, 9C): restored proliferation
